The nature of data set [1]: Inhibition of Saccharomyces cerevisiae alpha-glucosidase.
The nature of data set [2]: Inhibition of Bacillus stearothermophilus alpha-glucosidase. Also on record: species or system Geobacillus stearothermophilus.
Data set [3] can be described thus: Stability in artificial gastric juice at 10 mM after 48 hrs. Format: physicochemical. Conditions: simulated gi fluid, 10000 µM.
The nature of data set [4]: Stability in artificial intestinal juice at 10 mM after 12 hrs. It counts as physicochemical. Conditions: simulated gi fluid, 10000 µM.

Data on 26 molecules can be found in ChEMBL document CHEMBL1140104, “Chlorogenic acid derivatives with alkyl chains of different lengths and orientations: potent alpha-glucosidase inhibitors” (J Med Chem, 2008).

The structures appear in SMILES notation. Counter-ions that a name gives are not always drawn.

On to `CCCCCCCC[C@@H]1OC(=O)[C@]2(C[C@@H](OC(=O)/C=C/c3ccc(O)c(O)c3)[C@@H]3O[C@H](CCCCCCCC)O[C@@H]3C2)O1`, for which the IC50 (commonly the concentration needed to halve the response being measured) in data set [1] stood at 1 µM; in data set [2] it was 2 µM.
`CCCCCCCC[C@@H]1O[C@H]2[C@H](OC(=O)/C=C/c3ccc(O)c(O)c3)C[C@]3(C[C@H]2O1)O[C@H](CCCCCCCC)OC3=O`: the IC50 in data set [1] came out at 0.8 µM; in data set [2] it was 1.8 µM.
The like results for `CCCCCCCCC1(CCCCCCCC)OC(=O)[C@@]2(C[C@@H](O)[C@@H](O)[C@H](OC(=O)/C=C/c3ccc(O)c(O)c3)C2)O1` were, in that order, 3 µM and 5.1 µM.
The matching figures for `CC1(C)O[C@H]2[C@H](OC(=O)/C=C/c3ccc(O)c(O)c3)C[C@]3(C[C@H]2O1)OC(C)(C)OC3=O`: 391 µM and 154 µM.
In the case of `CCCCCC1(CCCCC)OC(=O)[C@@]2(C[C@@H](O)[C@@H](O)[C@H](OC(=O)/C=C/c3ccc(O)c(O)c3)C2)O1`, the IC50 in data set [1] turned out to be 3.6 µM; in data set [2], 14.2 µM.
The like results for `CCCCCCC1(CCCCCC)OC(=O)[C@@]2(C[C@@H](O)[C@@H](O)[C@H](OC(=O)/C=C/c3ccc(O)c(O)c3)C2)O1` were, in that order, 3.4 µM and 3.9 µM.
Take `CCCCCCCC[C@@H]1OC(=O)[C@@]2(C[C@@H](O)[C@@H](O)[C@H](OC(=O)/C=C/c3ccc(O)c(O)c3)C2)O1`: the 50% inhibitory concentration (IC50) in data set [1] was 3.3 µM; in data set [2] it was 10.9 µM.
Take `CC1(C)OC(=O)[C@@]2(C[C@@H](O)[C@@H](O)[C@H](OC(=O)/C=C/c3ccc(O)c(O)c3)C2)O1`: the 50% inhibitory concentration (IC50) in data set [1] turned out to be 114 µM; in data set [2], 2540 µM.
As to `CCC1(CC)O[C@H]2[C@H](OC(=O)/C=C/c3ccc(O)c(O)c3)C[C@]3(C[C@H]2O1)OC(CC)(CC)OC3=O`, the IC50 in data set [1] was 26.5 µM; in data set [2] it was 44.9 µM.
Consider `CCCCC1(CCCC)OC(=O)[C@@]2(C[C@@H](O)[C@@H](O)[C@H](OC(=O)/C=C/c3ccc(O)c(O)c3)C2)O1`, for which the IC50 was 3.4 µM in data set [1] and 14.4 µM in data set [2].
Take `CCCCCCCC[C@H]1OC(=O)[C@@]2(C[C@@H](O)[C@@H](O)[C@H](OC(=O)/C=C/c3ccc(O)c(O)c3)C2)O1`: the values for the half-maximal inhibitory concentration (IC50) in data set [1] and in data set [2] were 3.6 µM and 12.5 µM, respectively.
The matching figures for `CC1(C)OC2Cc3c(O)cc(O)cc3O[C@@H]2c2cc(O)c(O)cc21` (some centres undefined): 18.5 µM and 29.6 µM.
Regarding `CCCCCCCC1(CCCCCCC)OC(=O)[C@@]2(C[C@@H](O)[C@@H](O)[C@H](OC(=O)/C=C/c3ccc(O)c(O)c3)C2)O1`, the IC50 amounted to 4.3 µM in data set [1] and 3.6 µM in data set [2].
`CCCCCCCC[C@H]1O[C@H]2[C@H](OC(=O)/C=C/c3ccc(O)c(O)c3)C[C@]3(C[C@H]2O1)O[C@@H](CCCCCCCC)OC3=O`: the results for the IC50 in data set [1] and in data set [2] were 0.3 µM and 0.8 µM, respectively.
The matching figures for `CCCCCCC1(CCCCCC)O[C@H]2[C@H](OC(=O)/C=C/c3ccc(O)c(O)c3)C[C@]3(C[C@H]2O1)OC(CCCCCC)(CCCCCC)OC3=O`: 0.5 µM and 0.8 µM.
Regarding `CCCCCCCC1(CCCCCCC)O[C@H]2[C@H](OC(=O)/C=C/c3ccc(O)c(O)c3)C[C@]3(C[C@H]2O1)OC(CCCCCCC)(CCCCCCC)OC3=O`, the IC50 came out at 0.4 µM in data set [1] and 0.9 µM in data set [2].
In the case of `CCCCCCCCC1(CCCCCCCC)O[C@H]2[C@H](OC(=O)/C=C/c3ccc(O)c(O)c3)C[C@]3(C[C@H]2O1)OC(CCCCCCCC)(CCCCCCCC)OC3=O`, the 50% inhibitory concentration (IC50) amounted to 0.5 µM in data set [1] and 0.9 µM in data set [2].
For the molecule `CCCCCC1(CCCCC)O[C@H]2[C@H](OC(=O)/C=C/c3ccc(O)c(O)c3)C[C@]3(C[C@H]2O1)OC(CCCCC)(CCCCC)OC3=O`, the IC50 in data set [1] came to 0.8 µM; in data set [2] it was 1.1 µM.
As for `CCCCC1(CCCC)O[C@H]2[C@H](OC(=O)/C=C/c3ccc(O)c(O)c3)C[C@]3(C[C@H]2O1)OC(CCCC)(CCCC)OC3=O`, the IC50 in data set [1] is 0.3 µM; in data set [2] it was 0.8 µM.
Consider `CCCCCCCC[C@@H]1O[C@H]2[C@H](OC(=O)/C=C/c3ccc(O)c(O)c3)C[C@]3(C[C@H]2O1)O[C@@H](CCCCCCCC)OC3=O`, for which the Stability result in data set [3] and in data set [4] was “Stable” each time. The IC50 in data set [1] turned out to be 0.3 µM; in data set [2] it was 0.7 µM.
As for `CCCC1(CCC)O[C@H]2[C@H](OC(=O)/C=C/c3ccc(O)c(O)c3)C[C@]3(C[C@H]2O1)OC(CCC)(CCC)OC3=O`, the half-maximal inhibitory concentration (IC50) came out at 3.3 µM in data set [1] and 5.5 µM in data set [2].
With `CCCC1(CCC)OC(=O)[C@@]2(C[C@@H](O)[C@@H](O)[C@H](OC(=O)/C=C/c3ccc(O)c(O)c3)C2)O1`, the half-maximal inhibitory concentration (IC50) in data set [1] turned out to be 19.4 µM; in data set [2], 62.2 µM.
Take `CCC1(CC)OC(=O)[C@@]2(C[C@@H](O)[C@@H](O)[C@H](OC(=O)/C=C/c3ccc(O)c(O)c3)C2)O1`: the figures for the IC50 in data set [1] and in data set [2] were 71.1 µM and 128 µM, respectively.
With `C[C@H]1O[C@H](O[C@H]2[C@H](O)[C@@H](O)[C@@H](O[C@H]3[C@H](O)[C@@H](O)C(O)O[C@@H]3CO)O[C@@H]2CO)[C@H](O)[C@@H](O)[C@@H]1N[C@H]1C=C(CO)[C@@H](O)[C@H](O)[C@H]1O` (some centres undefined) [ACARBOSE], the IC50 in data set [1] and in data set [2] was 0.1 µM throughout.
Turning to `O=C(/C=C/c1ccc(O)c(O)c1)O[C@@H]1C[C@](O)(C(=O)O)C[C@@H](O)[C@H]1O` [CHLOROGENIC ACID], the IC50 was over 2820 µM in data set [1] and 2820 µM in data set [2].
Take `OC[C@H]1NC[C@H](O)[C@@H](O)[C@@H]1O` [DUVOGLUSTAT HYDROCHLORIDE]: the IC50 in data set [1] was 1.8 µM; in data set [2], 2.4 µM.
